According to patent US9908870B2, “Crystalline form of a benzimidazole derivative and a preparation method thereof” (CJ HEALTHCARE CORPORATION, priority 2015, dated 2018):
Several values for one entry are separate records, joined by “and”; a condition that tells them apart may be missing. Equal entries are not always repeated.

Columns and labels:
Format in all cases: physicochemical
[1] = Crystal stability test under severe stability testing conditions
Procedure: Finally, a crystal stability test was performed to examine the stability of the crystalline form itself, and the results are shown in Table 4 below.

[2] = Static-electricity inducibility test (bulk density, tapped density, Carr's Index); conditions: for CI (Carr's Index): CI=100×(1−BD/TD), ≦30 value - good flowability
[3] = Stability test under a photo-stressed condition
Hygroscopicity test = experiment: Hygroscopicity test
Source text: Compounds with low hygroscopicity are advantageous in preparing formulations, and also are advantageous for storage. Additionally, compounds with high hygroscopicity are not advantageous in that they are difficult to formulate, and reproducible results may hardly be obtained even though formulations can be successfully achieved.

[4] = after 4 weeks at 60±2° C., 80±5% RH
[5] = after 4 weeks, photo-stressed condition
[6] = after 4 weeks, photo-stressed condition (1,200,000 lux or higher and 200 W/m^2 or higher)

| BD (bulk density) [2] | TD (tapped density) [2] | CI (Carr's Index) [2] | Content of impurities (related compounds) [3, 5] [%] | Appearance [3, 6] | Appearance ([3]; initial stage) | Content of impurities (related compounds) ([3]; initial stage) [%] | Hygroscopicity (Hygroscopicity test; 33% RH, after 4 weeks) | Hygroscopicity (Hygroscopicity test; 75% RH, after 4 weeks) | Hygroscopicity (Hygroscopicity test; 93% RH, after 4 weeks) | SMILES | further results |
| --- | --- | --- | --- | --- | --- | --- | --- | --- | --- | --- | --- |
| 0.34 g/mL and 0.32 g/mL | 0.45 g/mL | 24.44% and 28.89% | 0.10 | white | white | 0.10 | 0.17 | 0.20 | 0.28 | Cc1nc2c(O[C@H]3CCOc4cc(F)cc(F)c43)cc(C(=O)N(C)C)cc2[nH]1 [Crystalline form A, 4-[((4S)-5,7-difluoro-3,4-dihydro-2H-chromen-4-yl)oxy]-N,N,2-trimethyl-1H-benzimidazole-6-carboxamide] | Crystalline form [1, 4]: crystalline form A; DSC [1, 4]: 223 °C; Crystalline form ([1]; initial stage): crystalline form A; DSC ([1]; initial stage): 223 °C; Optical purity [3, 5]: 100%; Content of impurities (related compounds) ([3]; after 4 weeks, photo-stressed condition, listed as crystalline form A): ≤ 0.1%; Content of impurities (related compounds) ([3]; initial stage, listed as crystalline form A): ≤ 0.1%; Hygroscopicity values (Hygroscopicity test; stored at 33%, 75% and 93% relative humidity for 4 weeks): below 0.3 |
| 0.23 g/mL and 0.22 g/mL | 0.39 g/mL and 0.38 g/mL | 41.02% and 42.11% | 0.49 | yellow | white | 0.16 | 1.90 | 4.09 | 5.25 | Cc1nc2c(O[C@H]3CCOc4cc(F)cc(F)c43)cc(C(=O)N(C)C)cc2[nH]1 [Non-crystalline form, 4-[((4S)-5,7-difluoro-3,4-dihydro-2H-chromen-4-yl)oxy]-N,N,2-trimethyl-1H-benzimidazole-6-carboxamide] | Increase in content of related compounds ([3]; after 4-week photoexposure vs initial): ≥ 3 fold; Increase in content of optical isomers ([3]; after 4 weeks photo-stressed condition vs initial): 10 fold; Content of optical isomers [3, 5]: 0.47%; Content of optical isomers ([3]; initial stage): 0.04%; Content of impurities (related compounds) ([3]; initial stage, listed as non-crystalline form): 0.16%; Hygroscopicity (Hygroscopicity test; initial stage): 1.32 |
